Results from US20250147006A1, “MULTI-DEPTH SPIRAL MILLI FLUIDIC DEVICE FOR WHOLE MOUNT ZEBRAFISH ANTIBODY STAINING” (THE REGENTS OF THE UNIVERSITY OF CALIFORNIA, priority 2023, published 2025).
≈ marks a conversion by molar mass, not a printed value. Like-named read-outs stand apart in the source and are kept apart here.

Columns and labels:
[1] = tested on: zebrafish embryos; conditions: for EC50: Danio rerio, 2 h
[2] = tested on: zebrafish embryos; conditions: 24-well plate
[3] = tested on: zebrafish embryos; test: animal or person; conditions: Danio rerio, 2 h, read-out: absolute EC50 (50% effective concentration), tail curvature

## Cn1c(=O)c2c(ncn2C)n(C)c1=O [caffeine]
[1]; CGG, 2-hour treatment and 24-hour recovery, compared with well plate
  zebrafish embryo survival rate: close to the zebrafish embryo tested in the well plate
[1]; CGG, 3 gradients, 2-hour treatment, compared with well plate
  hillslope of dose-response curves, tail curvature: greater than the hillslope of well plate-based dose-response curves
[1]; CGG, after 24-hour recovery at 2 ml/min, compared with well plate
  overall frequency of edema occurrences: significantly higher in the CGG than in the well plate
[1]; read-out: absolute EC50, tail curvature, CGG, measured concentrations (trypan blue intensity), highest inner wall inlet flowrate (150 μl/min), outer wall 300 μl/min, 2-hour treatment
  EC50: 987 mg/L (≈ 5.08 mM)
[1]; read-out: absolute EC50, tail curvature, CGG, measured concentrations (trypan blue intensity), lowest inner wall inlet flowrate (75 μl/min), outer wall 300 μl/min, 2-hour treatment
  EC50: 993 mg/L (≈ 5.11 mM)
[1]; read-out: absolute EC50, tail curvature, CGG, measured concentrations (trypan blue intensity), middle inner wall inlet flowrate (100 μl/min), outer wall 300 μl/min, 2-hour treatment
  EC50: 1080 mg/L (≈ 5.56 mM)
[1]; read-out: absolute EC50, tail curvature, CGG, simulated concentrations, highest inner wall inlet flowrate (150 μl/min), outer wall 300 μl/min, 2-hour treatment
  EC50: 1210 mg/L (≈ 6.22 mM)
[1]; read-out: absolute EC50, tail curvature, CGG, simulated concentrations, lowest inner wall inlet flowrate (75 μl/min), outer wall 300 μl/min, 2-hour treatment
  EC50: 1180 mg/L (≈ 6.05 mM)
[1]; read-out: absolute EC50, tail curvature, CGG, simulated concentrations, middle inner wall inlet flowrate (100 μl/min), outer wall 300 μl/min, 2-hour treatment
  EC50: 1220 mg/L (≈ 6.28 mM)
[2]; after 2-hour caffeine treatment
  frequency of tail curvature (scoliosis): concentration dependent
[2]; after 24 hours culturing in E3 buffer
  recovery of embryos with tail curvature: recovered to normal
[2]; all caffeine concentrations 0.0325-2 mg/mL, 2-hour treatment and 24-hour recovery
  zebrafish embryo survival rate at the end of the experiment: over 90%
[3]
  EC50: 690 mg/L (≈ 3.56 mM)
